Reference: PubChem BioAssay (NCI)
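Growth conditions: 96-well plates. Treatment: test compound, 48 hours, 5 concentrations. Analysis: linear interpolation between bracketing concentrations; unreached endpoints set to highest concentration. GI50: concentration for 50% inhibition of growth. TGI: total growth inhibition.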

Assays:
Assay in all cases: NCI-60 cell line screen, 48 h
OVCAR-3 ovarian = test system: OVCAR-3 ovarian
TK-10 renal = test system: TK-10 renal
SF-539 CNS = test system: SF-539 CNS
RXF 393 renal = test system: RXF 393 renal
COLO 205 colon = test system: COLO 205 colon
HOP-92 NSCLC = test system: HOP-92 NSCLC
HCT-15 colon = test system: HCT-15 colon
U251 CNS = test system: U251 CNS
SNB-19 CNS = test system: SNB-19 CNS
BT-549 breast = test system: BT-549 breast
NCI-H23 lung = test system: NCI-H23 lung
SF-268 CNS = test system: SF-268 CNS
HT29 colon = test system: HT29 colon
HS 578T breast = test system: HS 578T breast
CCRF-CEM leukemia = test system: CCRF-CEM leukemia
M14 melanoma = test system: M14 melanoma
SN12C renal = test system: SN12C renal
MOLT-4 leukemia = test system: MOLT-4 leukemia
NCI-H460 lung = test system: NCI-H460 lung
IGROV1 ovarian = test system: IGROV1 ovarian
NCI-H522 lung = test system: NCI-H522 lung
MDA-MB-435 = test system: MDA-MB-435
NCI/ADR-RES ovarian = test system: NCI/ADR-RES ovarian
SNB-75 CNS = test system: SNB-75 CNS
SK-MEL-28 melanoma = test system: SK-MEL-28 melanoma
OVCAR-5 ovarian = test system: OVCAR-5 ovarian
MDA-MB-231 breast = test system: MDA-MB-231 breast
K-562 leukemia = test system: K-562 leukemia
786-0 renal = test system: 786-0 renal
SK-MEL-5 melanoma = test system: SK-MEL-5 melanoma
RPMI-8226 leukemia = test system: RPMI-8226 leukemia
CAKI-1 renal = test system: CAKI-1 renal
HL-60(TB) leukemia = test system: HL-60(TB) leukemia
UACC-257 melanoma = test system: UACC-257 melanoma
SR leukemia = test system: SR leukemia
KM12 colon = test system: KM12 colon
A498 renal = test system: A498 renal
UO-31 renal = test system: UO-31 renal
A549 NSCLC = test system: A549 NSCLC
SK-MEL-2 melanoma = test system: SK-MEL-2 melanoma
OVCAR-4 ovarian = test system: OVCAR-4 ovarian
ACHN renal = test system: ACHN renal
HCT-116 colon = test system: HCT-116 colon
NCI-H226 lung = test system: NCI-H226 lung
HCC-2998 colon = test system: HCC-2998 colon
T-47D breast = test system: T-47D breast
SK-OV-3 ovarian = test system: SK-OV-3 ovarian
OVCAR-8 ovarian = test system: OVCAR-8 ovarian
SW-620 colon = test system: SW-620 colon
DU-145 prostate = test system: DU-145 prostate
HOP-62 NSCLC = test system: HOP-62 NSCLC
MCF7 breast = test system: MCF7 breast
PC-3 prostate = test system: PC-3 prostate
UACC-62 melanoma = test system: UACC-62 melanoma
MALME-3M melanoma = test system: MALME-3M melanoma

Compound: N=C(N)c1ccc(-c2ccc(-c3cccs3)s2)nc1
- GI50 (OVCAR-3 ovarian): 234 nM
- TGI (OVCAR-3 ovarian): 2310 nM
- GI50 (TK-10 renal): 1030 nM
- TGI (TK-10 renal): 2330 nM
- GI50 (SF-539 CNS): 1570 nM
- TGI (SF-539 CNS): 3080 nM
- GI50 (RXF 393 renal): 1560 nM
- TGI (RXF 393 renal): 3540 nM
- GI50 (COLO 205 colon): 248 nM
- TGI (COLO 205 colon): 1090 nM
- GI50 (HOP-92 NSCLC): 460 nM
- TGI (HOP-92 NSCLC): 2230 nM
- GI50 (HCT-15 colon): 1930 nM
- TGI (HCT-15 colon): 4470 nM
- GI50 (U251 CNS): 1660 nM
- TGI (U251 CNS): 3350 nM
- GI50 (SNB-19 CNS): 3480 nM
- TGI (SNB-19 CNS): 20800 nM
- GI50 (BT-549 breast): 4790 nM
- TGI (BT-549 breast): 16300 nM
- GI50 (NCI-H23 lung): 3670 nM
- TGI (NCI-H23 lung): 18900 nM
- GI50 (SF-268 CNS): 2740 nM
- TGI (SF-268 CNS): 10700 nM
- GI50 (HT29 colon): 1600 nM
- TGI (HT29 colon): 3830 nM
- GI50 (HS 578T breast): 1550 nM
- TGI (HS 578T breast): 4660 nM
- GI50 (CCRF-CEM leukemia): 1780 nM
- TGI (CCRF-CEM leukemia): 4190 nM
- GI50 (M14 melanoma): 1860 nM
- TGI (M14 melanoma): 3630 nM
- GI50 (SN12C renal): 1680 nM
- TGI (SN12C renal): 5380 nM
- GI50 (MOLT-4 leukemia): 1960 nM
- TGI (MOLT-4 leukemia): 4130 nM
- GI50 (NCI-H460 lung): 33.4 nM
- TGI (NCI-H460 lung): 449 nM
- GI50 (IGROV1 ovarian): 1760 nM
- TGI (IGROV1 ovarian): 3560 nM
- GI50 (NCI-H522 lung): 1610 nM
- TGI (NCI-H522 lung): 3440 nM
- GI50 (MDA-MB-435): 1740 nM
- TGI (MDA-MB-435): 3420 nM
- GI50 (NCI/ADR-RES ovarian): 3110 nM
- TGI (NCI/ADR-RES ovarian): 14500 nM
- GI50 (SNB-75 CNS): 1780 nM
- TGI (SNB-75 CNS): 4520 nM
- GI50 (SK-MEL-28 melanoma): 1700 nM
- TGI (SK-MEL-28 melanoma): 3650 nM
- GI50 (OVCAR-5 ovarian): 1260 nM
- TGI (OVCAR-5 ovarian): 5680 nM
- GI50 (MDA-MB-231 breast): 1550 nM
- TGI (MDA-MB-231 breast): 3390 nM
- GI50 (K-562 leukemia): 1610 nM
- TGI (K-562 leukemia): 3810 nM
- GI50 (786-0 renal): 1670 nM
- TGI (786-0 renal): 3300 nM
- GI50 (SK-MEL-5 melanoma): 1800 nM
- TGI (SK-MEL-5 melanoma): 3780 nM
- GI50 (RPMI-8226 leukemia): 434 nM
- TGI (RPMI-8226 leukemia): 2780 nM
- GI50 (CAKI-1 renal): 2130 nM
- TGI (CAKI-1 renal): 6830 nM
- GI50 (HL-60(TB) leukemia): 1780 nM
- TGI (HL-60(TB) leukemia): 4010 nM
- GI50 (UACC-257 melanoma): 1740 nM
- TGI (UACC-257 melanoma): 3500 nM
- GI50 (SR leukemia): 1270 nM
- TGI (SR leukemia): 5470 nM
- GI50 (KM12 colon): 1880 nM
- TGI (KM12 colon): 3600 nM
- GI50 (A498 renal): 165 nM
- TGI (A498 renal): 740 nM
- GI50 (UO-31 renal): 545 nM
- TGI (UO-31 renal): 3920 nM
- GI50 (A549 NSCLC): 23 nM
- TGI (A549 NSCLC): 1280 nM
- GI50 (SK-MEL-2 melanoma): 2190 nM
- TGI (SK-MEL-2 melanoma): 4200 nM
- GI50 (OVCAR-4 ovarian): 944 nM
- TGI (OVCAR-4 ovarian): 3320 nM
- GI50 (ACHN renal): 1760 nM
- TGI (ACHN renal): 3330 nM
- GI50 (HCT-116 colon): 1380 nM
- TGI (HCT-116 colon): 2790 nM
- GI50 (NCI-H226 lung): 2000 nM
- TGI (NCI-H226 lung): 15800 nM
- GI50 (HCC-2998 colon): 771 nM
- TGI (HCC-2998 colon): 2080 nM
- GI50 (T-47D breast): 2060 nM
- TGI (T-47D breast): 5570 nM
- GI50 (SK-OV-3 ovarian): 1560 nM
- TGI (SK-OV-3 ovarian): 5880 nM
- GI50 (OVCAR-8 ovarian): 1590 nM
- TGI (OVCAR-8 ovarian): 4060 nM
- GI50 (SW-620 colon): 1850 nM
- TGI (SW-620 colon): 3930 nM
- GI50 (DU-145 prostate): 1800 nM
- TGI (DU-145 prostate): 4040 nM
- GI50 (HOP-62 NSCLC): 1940 nM
- TGI (HOP-62 NSCLC): 5170 nM
- GI50 (MCF7 breast): 1320 nM
- TGI (MCF7 breast): 3300 nM
- GI50 (PC-3 prostate): 1880 nM
- TGI (PC-3 prostate): 6110 nM
- GI50 (UACC-62 melanoma): 1700 nM
- TGI (UACC-62 melanoma): 3220 nM
- GI50 (MALME-3M melanoma): 1960 nM
- TGI (MALME-3M melanoma): 3570 nM
